The text below walks through data of US20110038957A1, “NOVEL NUTRACEUTICAL COMPOSITIONS CONTAINING STEVIA EXTRACT OR STEVIA EXTRACT CONSTITUENTS AND USES THEREOF” (priority 2007, published 2011).

The subject of assay [1] is NMDA receptor. Conditions: rat hippocampal slice, Schaffer collateral stimulation (Bergeron et al 1998); cited from earlier work.
Assay [2] relates to adult mice. To be noted: systemic administration (Kinney et al 2003); cited from earlier work.
For assay [3], the system named is NMDA receptor. To be noted: mouse hippocampal slice, Schaffer collateral stimulation (Bergeron et al 1998); cited from earlier work.
For assay [4], the system named is adult mice. Conditions: systemic administration, adult mice (Kinney et al 2003); cited from earlier work.
Assay [5] concerns the target T1, human glycine transporter 1b (GlyT1) (Homo sapiens, UniProt P48067).
T1 construct: expressed in transfected cells
T1 sequence (P48067 1-652 isoform P48067-3): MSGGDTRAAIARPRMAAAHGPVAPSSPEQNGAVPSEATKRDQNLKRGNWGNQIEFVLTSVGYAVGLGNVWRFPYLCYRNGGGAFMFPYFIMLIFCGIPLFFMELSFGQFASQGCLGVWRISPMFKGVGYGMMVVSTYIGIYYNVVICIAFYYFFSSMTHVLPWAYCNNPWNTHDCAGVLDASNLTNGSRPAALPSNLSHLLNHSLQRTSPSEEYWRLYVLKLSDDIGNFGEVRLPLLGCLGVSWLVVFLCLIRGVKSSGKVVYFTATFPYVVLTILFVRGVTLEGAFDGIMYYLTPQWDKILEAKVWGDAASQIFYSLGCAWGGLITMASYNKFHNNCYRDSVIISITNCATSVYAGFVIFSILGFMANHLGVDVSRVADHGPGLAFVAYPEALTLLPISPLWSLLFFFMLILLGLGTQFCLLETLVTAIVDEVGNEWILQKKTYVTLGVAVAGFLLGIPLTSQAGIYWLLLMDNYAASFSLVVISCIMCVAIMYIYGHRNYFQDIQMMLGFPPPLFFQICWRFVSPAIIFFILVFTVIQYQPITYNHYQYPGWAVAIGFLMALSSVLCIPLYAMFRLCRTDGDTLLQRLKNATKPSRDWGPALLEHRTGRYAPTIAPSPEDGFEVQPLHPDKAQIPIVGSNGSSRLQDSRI
The experiment in a line: Inhibition of glycine transporter 1 in a cellular assay ([3H]-glycine uptake into CHO cells). To be noted: pure compounds, CHO cells expressing GlyT1, 60 nM [3H]-glycine, 30 minutes, room temperature; for IC50: read-out: IC50 for tritiated glycine uptake. It counts as cell-based. As for the experimental part: CHO cells stably expressing the human glycine transporter 1b cDNA (GlyT1) were routinely grown in Dulbecco's Modified Eagle's Medium (Invitrogen, Carlsbad, USA) containing 10% dialysed foetal calf serum, penicillin, streptomycin, proline and the antibiotic G418. Cells were harvested by trypsinisation one day prior to the assay and were seeded in the above mentioned medium. Immediately prior to the assay, the medium was replaced by uptake buffer containing 150 mM NaCl, 1 mM CaCl2, 2.5 mM KCl, 2.5 mM MgCl2, 10 mM Glucose and 10 mM N-2-hydroxyethylpiperazine-N′-2-ethanesulfonic acid (HEPES buffer).
Glycine uptake into the cells was determined by addition of 60 nM radio-labelled [^3H]-glycine (Amersham Biosciences GE Healthcare, Slough, UK) and incubation for 30 minutes at room temperature. Following removal of unincorporated label by gentle washing three times with the above buffer, incorporated glycine was quantified by liquid scintillation counting.

Assay [6] relates to pCREB (activated form of the cAMP response element binding protein). Nature of the assay: Hippocampal slice cultures, immunohistochemistry of synaptic marker pCREB. Also on record: key: ++++ shows a qualitative maximal activation; ++ and + signify a half-maximum and a moderate activation, respectively; ++ and + signify a half-maximum and a moderate activation, respectively; ± indicates no change in immunoreactivity. It counts as cell-based, Wistar rats. To be noted: 15 min treatment after 48 h in culture; vs sister cultures treated with buffer. As to the method:
(§1) Seven-day-old Wistar rats were decapitated using a guillotine. In less than 1 minute the skull was opened, the cerebral hemispheres were separated and transferred and both hippocampi were dissected and transferred into ice-cold buffer containing 137 mM NaCl, 5 mM KCl, 0.85 mM Na2HPO4, 1.5 mM CaCl2, 0.66 mM KH2PO4, 0.28 mM MgSO4, 1 mM MgCl2, 2.7 mM NaHCO3, 1 mM Kynurenic acid and 0.6% D-glucose. Transverse hippocampal slices (400 μm) were prepared using a vibrating blade microtome (VT1200S; Leica Microsystems (Schweiz) AG, Heerbrugg, Switzerland) in the same buffer. Hippocampal slices were individually placed on membrane inserts (Millicell Culture Plate Inserts, 0.4 μm) and cultivated at 35° C., 5% CO2, 95% humidity in a medium containing a 1:1 mixture of BME and MEM (both from Invitrogen) containing 25% heat-inactivated horse serum, 1× GlutaMAX, 1× Penicillin/Streptomycin, 0.6% glucose and 1 mM Kynurenic acid (Stoppini 1991 J. Neurosci. Methods 37(2):173-82). After 48 h in culture, synaptic NMDA receptors were activated by addition of Stevia extract, its major constituents or control substances for 15 min in 140 mM NaCl, 5 mM KCl, 1.3 mM CaCl2, 25 mM HEPES (pH 7.3), 33 mM D-glucose and 0.02 mM bicuculline methiodide. […] An additional positive control comprised the addition of 200 μM glycine to sister cultures. After the treatments, sections were washed and fixed for immunohistochemistry. Markers of enhanced synaptic activity, normally associated with long-term potentiation, representing an ex vivo model of learning and memory were quantitated (see Table 3, below). Treatment of hippocampal cultures with Stevia extract, steviol, isosteviol and stevioside induced one or more biochemical markers typical for LTP (pCREB: activated form of the cAMP response element binding protein; pMAPK: activated form of the mitogen-activated protein kinase; […]

Assay [7] relates to pMAPK (activated form of the mitogen-activated protein kinase). Nature of the assay: Hippocampal slice cultures, immunohistochemistry of synaptic marker pMAPK. Also on record: key: ++++ shows a qualitative maximal activation; ++ and + signify a half-maximum and a moderate activation, respectively; ++ and + signify a half-maximum and a moderate activation, respectively; ± indicates no change in immunoreactivity. Conditions: 15 min treatment after 48 h in culture; vs sister cultures treated with buffer. Type of assay: cell-based, Wistar rats. As to the method: as §1

In assay [8] the test system is GluR1 (cell surface presence of AMPA receptor 1). The experiment in a line: Hippocampal slice cultures, immunohistochemistry of synaptic marker GluR1. Type of assay: cell-based, Wistar rats. Also on record: key to GluR1, relative activation of synaptic marker: ++++ shows a qualitative maximal activation; ++ and + signify a half-maximum and a moderate activation, respectively; ++ and + signify a half-maximum and a moderate activation, respectively; ± indicates no change in immunoreactivity. Conditions: 15 min treatment after 48 h in culture; vs sister cultures treated with buffer. As for the experimental part: as §1

Where two headings read alike, the source gives them in different places.

Take `CN(CCC(Oc1ccc(-c2ccccc2)cc1)c1ccc(F)cc1)CC(=O)O` (stereo not shown) [NFPS, N-[3-(4′-fluorophenyl)-3-(4′-phenylphenoxy)] propylsarcosine]: the “NMDA receptor responses in CA1 pyramidal cells” value in the assay with NMDA receptor [1] and in the assay with NMDA receptor [3] was “enhanced NMDA receptor responses in CA1 pyramidal cells were observed” throughout. Besides, the “LTP in the dentate gyrus” value in the assay on adult mice [2] is recorded as “increased LTP in the dentate gyrus”. In the assay with adult mice [4], the “Prepulse inhibition of the acoustic startle response” value is given as “enhanced prepulse inhibition of the acoustic startle response”.
One may read the IC50 as the concentration needed to halve the response being measured. Regarding `CN(CC[C@@H](Oc1ccc(C(F)(F)F)cc1)c1ccccc1)CC(=O)O` [ORG24598, reference compound], the IC50 in assay [5] was found to be 0.02 µM.
For the molecule `C=C1C[C@@]23CC[C@H]4[C@@](C)(CCC[C@@]4(C)C(=O)O[C@@H]4O[C@H](CO)[C@@H](O)[C@H](O)[C@H]4O)[C@@H]2CC[C@]1(O[C@@H]1O[C@H](CO)[C@@H](O)[C@H](O[C@@H]2O[C@H](CO)[C@@H](O)[C@H](O)[C@H]2O)[C@H]1O[C@@H]1O[C@H](CO)[C@@H](O)[C@H](O)[C@H]1O)C3` [Rebaudioside A], in assay [6], the “pCREB, relative activation of synaptic marker” value (shortened to “pCREB, relative activation”) is reported as “±”. The “IC50 for tritiated glycine uptake” value in assay [5] was “inactive”. Also, the “pMAPK, relative activation of synaptic marker” value (from here on “pMAPK, relative activation”) in assay [7] was “±”. Moreover, the “GluR1, relative activation of synaptic marker” value in assay [8] is given as “±”.
In the case of `CNCC(=O)O` [Sarcosine, reference compound], the half-maximal inhibitory concentration (IC50) in assay [5] is 35.9 µM.
`C=C1C[C@@]23CC[C@H]4[C@@](C)(CCC[C@@]4(C)C(=O)O)[C@@H]2CC[C@]1(O)C3` [Steviol]: the “pCREB, relative activation” value in assay [6] is reported as “++”. In addition, the “IC50 for tritiated glycine uptake” value in assay [5] was “inactive”. Besides, the “pMAPK, relative activation” value in assay [7] is given as “±”. Moreover, in assay [8], the “GluR1, percentage increase of control values” was 340%.
As for `C=C1C[C@@]23CC[C@H]4[C@@](C)(CCC[C@@]4(C)C(=O)O[C@@H]4O[C@H](CO)[C@@H](O)[C@H](O)[C@H]4O)[C@@H]2CC[C@]1(O[C@@H]1O[C@H](CO)[C@@H](O)[C@H](O)[C@H]1O[C@@H]1O[C@H](CO)[C@@H](O)[C@H](O)[C@H]1O)C3` [Stevioside], the “pCREB, relative activation” value in assay [6] is given as “±”. Also, the “IC50 for tritiated glycine uptake” value in assay [5] was “inactive”. Moreover, the “pMAPK, relative activation” value in assay [7] is “++”. Further, the “GluR1, relative activation of synaptic marker” value in assay [8] is given as “±”.
With Isosteviol, the “pCREB, relative activation” value in assay [6] is recorded as “+”. Besides, the “IC50 for tritiated glycine uptake” value in assay [5] was “inactive”. Moreover, the “pMAPK, relative activation” value in assay [7] is “±”. Besides, the “GluR1, percentage increase of control values” in assay [8] was determined as 361%.
